In assay [1] the target is T1, human serotonin 5-HT6 receptor (Homo sapiens, UniProt P50406).
T1 construct: expressed in transfected cells; host or cells: HeLa/E6-7
In words: Radioligand binding assay, human 5-HT6 receptors ([3H]LSD). As to conditions: human; Example 100 table; read-out: IC50 (nM) 5-HT6. Here is the method: (§1) The human 5-HT2a and 5-HT2b screens were conducted according to Bonhaus, D. W. et al. Br. J. Pharmacol. 1995, 115, 622. The human 5-HT2c screen was conducted according to Wolf, W. A. et al. J. Neurochem. 1997, 69, 1449. The human 5-HT6 screen was conducted according to Monsma, F. J. et al. Mol. Pharmacol. 1993, 43, 320.
This assay measures binding of [^3H]LSD (lysergic acid diethylamide) to human serotonin 5-HT6 receptors. HeLa/E6–7 cells stably transfected with a plasmid encoding the human serotonin 5-HT6 receptor were used to prepare membranes in modified Tris-HCl pH 7.4 buffer using standard techniques. A 30 μg aliquot of membrane was incubated with 1.5 nM [^3H]LSD for 120 minutes at 37° C. Non-specific binding was estimated in the presence of 5 μM 5-HT. Membranes were filtered and washed 3 times and the filters were counted to determine [^3H]LSD specifically bound. See Monsma, Jr., F. J. et al. “Cloning and expression of a novel serotonin receptor with high affinity for tricyclic psychotropic drugs” Mol. Pharmacol. 43: 320–327, 1993.
(§2) The human 5-HT2a and 5-HT2b screens were conducted according to Bonhaus, D. W. et al. Br. J. Pharmacol. 1995, 115, 622. The human […], W. A. et al. J. Neurochem. 1997, 69, 1449. The human 5-HT6 screen was conducted according to Monsama, F. J. et al. Mol. Pharmacol. 1993, 43, 320. The assay to human D3 receptors was conducted according to Sokoloff, P. et al. Nature 1990, 347;146. The human dopamine transporter assay was conducted according to Gu, H. et. al. J. Biol. Chem. 1994, 269 (10);7124; and Giros, B. et al. Trends. Pharmacol. Sci. 1993, 14: 43. The human muscarinic M1–M4 screens were conducted according to Buckley N. J. et al. Mol. Pharmacol. 1989, 35:469.

The target of assay [2] is T2, human dopamine D3 receptor (Homo sapiens, UniProt P35462).
T2 construct: expressed in transfected cells; host or cells: CHO
In words: Radioligand binding assay, human dopamine D3 receptors ([3H]Spiperone). The conditions noted are these: human; Example 100 table; read-out: IC50 (nM) D3. As for the experimental part: The assay for binding to human D3 receptors was conducted according to Sokoloff, P. et al. Nature 1990, 347, 146.
CHO cells stably transfected with a plasmid encoding the human dopamine D3 receptor were used to prepare membranes in modified Tris-HCl pH 7.4 buffer using standard techniques. […] Non-specific binding was estimated in the presence of 25 μM S-(−)-sulpiride. […] See Sokoloff, P. et al. “Molecular cloning and characterization of a novel dopamine receptor (D3) as a target for neuroleptics” Nature 347: 146–151, 1990.
as §2

Assay [3] concerns the target T3, human serotonin 5-HT2A receptor (Homo sapiens, UniProt P28223).
T3 construct: expressed in transfected cells; host or cells: CHO-K1
Nature of the assay: Radioligand binding assay, human 5-HT2A receptors ([3H]Ketanserin). The conditions noted are these: human; Example 100 table; read-out: IC50 (nM) 5-HT2A. Here is the method: as §1
CHO-K1 cells stably transfected with a plasmid encoding the human serotonin 5-HT2A receptor were used to prepare membranes in modified Tris-HCl pH 7.7 buffer using standard techniques. […] Non-specific binding was estimated in the presence of 1 μM mianserin. […] See Bonhaus, D. W. et al. “The pharmacology and distribution of human 5-hydroxytryptamine2B (5-HT2B) receptor gene products: comparison with 5-HT2A and 5-HT2C receptors” Brit. J. Pharmacol. 115: 622–628, 1995; and Saucier, C and Albert, P. R. “Identification of an endogenous 5-hydroxytryptamine2A receptor in NIH-3T3 cells: agonist-induced down-regulation involves decreases in receptor RNA and number” J. Neurochem. 68: 1998–2011, 1997.
as §2

The target of assay [4] is T4, human serotonin 5-HT2C receptor (Homo sapiens, UniProt P28335).
T4 construct: expressed in transfected cells; host or cells: CHO-K1
T4 sequence (P28335 33-458): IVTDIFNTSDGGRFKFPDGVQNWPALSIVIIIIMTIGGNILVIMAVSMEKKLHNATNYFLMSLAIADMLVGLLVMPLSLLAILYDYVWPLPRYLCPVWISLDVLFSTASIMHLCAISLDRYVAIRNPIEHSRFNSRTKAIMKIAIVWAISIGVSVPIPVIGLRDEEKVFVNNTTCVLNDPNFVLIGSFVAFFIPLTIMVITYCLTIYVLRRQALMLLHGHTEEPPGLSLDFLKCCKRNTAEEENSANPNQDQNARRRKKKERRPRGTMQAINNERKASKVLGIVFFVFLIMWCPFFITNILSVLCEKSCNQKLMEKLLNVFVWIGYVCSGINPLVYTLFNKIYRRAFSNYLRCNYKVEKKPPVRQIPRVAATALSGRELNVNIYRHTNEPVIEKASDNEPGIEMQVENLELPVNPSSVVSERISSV
Nature of the assay: Radioligand binding assay, human 5-HT2C receptors ([3H]Mesulergine). The conditions noted are these: human; Example 100 table; read-out: IC50 (nM) 5-HT2C. As for the experimental part: as §1
CHO-K1 cells stably transfected with a plasmid encoding the human serotonin 5-HT2C receptor were used to prepare membranes in modified Tris-HCl pH 7.7 buffer using standard techniques. […] Non-specific binding was estimated in the presence of 1 μM mianserin. […] See Wolf, W. A. and Schutz, J. S. “The serotonin 5-HT2C receptor is a prominent serotonin receptor in basal ganglia: evidence from functional studies on serotonin-mediated phosphoinositide hydrolysis” J. Neurochem. 69: 1449–1458, 1997.
as §2

The source of these data is patent publication US7087623B2, “Thiazole and other heterocyclic ligands for mammalian dopamine, muscarinic and serotonin receptors and transporters, and methods of use thereof” (Sepracor Inc., priority 2001, dated 2006).

A value given as a limit tells only on which side of the number the result lay.

T1 sequence (P50406 whole entry): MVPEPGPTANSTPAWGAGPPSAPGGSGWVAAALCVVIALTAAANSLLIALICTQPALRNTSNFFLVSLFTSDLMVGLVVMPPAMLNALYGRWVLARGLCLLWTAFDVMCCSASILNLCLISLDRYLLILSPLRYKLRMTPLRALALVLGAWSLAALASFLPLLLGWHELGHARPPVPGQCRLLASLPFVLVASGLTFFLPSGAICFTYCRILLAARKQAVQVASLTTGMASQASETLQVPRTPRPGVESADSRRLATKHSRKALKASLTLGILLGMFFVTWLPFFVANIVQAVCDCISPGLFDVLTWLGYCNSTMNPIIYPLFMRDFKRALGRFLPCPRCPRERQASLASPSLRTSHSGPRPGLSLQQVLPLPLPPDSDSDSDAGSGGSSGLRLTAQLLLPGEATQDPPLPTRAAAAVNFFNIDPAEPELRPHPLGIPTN
T2 sequence (P35462 whole entry): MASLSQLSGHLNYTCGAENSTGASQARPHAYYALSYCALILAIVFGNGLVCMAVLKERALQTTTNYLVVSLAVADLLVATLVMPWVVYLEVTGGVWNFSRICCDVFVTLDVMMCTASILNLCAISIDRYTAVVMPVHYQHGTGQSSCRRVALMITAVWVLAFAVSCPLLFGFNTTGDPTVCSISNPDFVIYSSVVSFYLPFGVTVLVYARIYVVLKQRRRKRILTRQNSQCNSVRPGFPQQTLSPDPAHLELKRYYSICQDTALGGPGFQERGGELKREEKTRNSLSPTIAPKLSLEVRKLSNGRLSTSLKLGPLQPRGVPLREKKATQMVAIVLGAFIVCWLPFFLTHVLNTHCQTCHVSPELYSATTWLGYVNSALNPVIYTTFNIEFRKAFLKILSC
T3 sequence (P28223 whole entry): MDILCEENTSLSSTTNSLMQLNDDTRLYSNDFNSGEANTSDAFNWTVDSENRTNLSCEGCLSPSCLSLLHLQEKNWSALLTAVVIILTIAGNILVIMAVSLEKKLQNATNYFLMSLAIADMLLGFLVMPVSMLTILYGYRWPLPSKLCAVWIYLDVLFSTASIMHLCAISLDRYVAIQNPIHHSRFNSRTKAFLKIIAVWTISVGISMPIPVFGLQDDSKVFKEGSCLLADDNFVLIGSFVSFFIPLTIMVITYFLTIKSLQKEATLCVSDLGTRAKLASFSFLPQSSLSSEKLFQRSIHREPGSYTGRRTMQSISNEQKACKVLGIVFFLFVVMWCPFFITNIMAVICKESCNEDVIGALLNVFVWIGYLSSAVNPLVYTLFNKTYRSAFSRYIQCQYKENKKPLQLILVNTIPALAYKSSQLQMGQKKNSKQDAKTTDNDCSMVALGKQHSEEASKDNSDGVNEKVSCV

With `CCN1CCCC1CNc1nc(C2(c3ccccc3F)CCCCC2)cs1` (racemic) [Compound 131, (1-ethyl-pyrrolidin-2-ylmethyl)-{4-[1-(2-fluorophenyl)-cyclohexyl]-thiazol-2-yl}-amine], the IC50 in assay [1] and in assay [2] was < 1000 nM in each case.
In the case of `CN(C)C1CCN(c2nc(C3(c4ccccc4F)CCCCC3)cs2)C1` (racemic) [Compound 136, (1-{4-[1-(2-Fluoro-phenyl)-cyclohexyl]-thiazol-2-yl}-pyrrolidin-3-yl)-dimethylamine], the IC50 in assay [1] and in assay [2] was > 1000 nM each time.
Turning to `CN1CCCC1CCNc1nc(C2(c3ccccc3F)CCCCC2)cs1` (single isomer, unassigned) [Compound 129, {4-[1-(2-fluorophenyl)-cyclohexyl]-thiazol-2-yl}-[2-(1-methyl-pyrrolidin-2-yl)-ethyl]-amine], the concentration for half-maximal inhibition (IC50) in assay [1], in assay [2], in assay [3] and in assay [4] was < 1000 nM throughout.
For the compound `Clc1ccc(C2(c3csc(NCCCN4CCOCC4)n3)CCCCC2)cc1` [Compound 94, {4-[1-(4-chloro-phenyl)-cyclohexyl]-thiazol-2-yl}-(3-morpholin-4-yl-propyl)-amine], the half-inhibitory concentration (IC50) in assay [1] was < 1000 nM; in assay [2], > 1000 nM; in assay [3], > 1000 nM; in assay [4], < 1000 nM.
`CN1CCCC1CCNc1nc(C2(c3ccc(Cl)cc3)CCCCC2)cs1` (stereo not shown) [Compound 95, {4-[1-(4-chloro-phenyl)-cyclohexyl]-thiazol-2-yl}-[2-(1-methyl-pyrrolidin-2-yl)-ethyl] amine]: the IC50 in assay [1], in assay [2], in assay [3] and in assay [4] was < 1000 nM in each case.
Regarding `Fc1ccccc1C1(c2csc(NCCCN3CCOCC3)n2)CCCC1` [Compound 96], the IC50 in assay [1], in assay [2], in assay [3] and in assay [4] was > 1000 nM throughout.
As for `COc1ccccc1N1CCN(c2nc(C3(c4ccccc4F)CCCCC3)cs2)CC1` [Compound 97], the concentration for half-maximal inhibition (IC50) in assay [1], in assay [2], in assay [3] and in assay [4] was > 1000 nM each time.
For the compound `CCN(CC)CCCNc1nc(C2(c3cccc(Cl)c3)CCOCC2)cs1` [Compound 98, N-{4-[4-(3-chloro-phenyl)-tetrahydro-pyran-4yl]-thiazol-2-yl}-N,N-diethyl-propane-1,3-diamine], the IC50 in assay [1] and in assay [2] was > 1000 nM throughout.
Turning to `Clc1ccc(C2(c3csc(NCCCN4CCOCC4)n3)CCCC2)cc1` [Compound 100], the IC50 was < 1000 nM in assay [1], > 1000 nM in assay [2], > 1000 nM in assay [3] and < 1000 nM in assay [4].
Consider `Clc1ccc(C2(c3csc(NCCN4CCCCC4)n3)CCCC2)cc1` [Compound 101], for which the IC50 in assay [1] and in assay [2] was < 1000 nM throughout.
For `Clc1ccc(C2(c3csc(NCCN4CCOCC4)n3)CCCCC2)cc1` [Compound 102], the IC50 in assay [1] is < 1000 nM; in assay [2], > 1000 nM.
As to `CCN(CC)CCCNc1nc(C2(c3ccc(Cl)cc3)CCCCC2)cs1` [Compound 103], the IC50 in assay [1], in assay [2], in assay [3] and in assay [4] was < 1000 nM throughout.
`CN1CCCN(c2nc(C3(c4ccc(Cl)cc4)CCCC3)cs2)CC1` [Compound 105]: the IC50 in assay [1] is < 1000 nM; in assay [2], < 100 nM; in assay [3] it was < 1000 nM; in assay [4] it was < 1000 nM.
Consider `CNC1CCN(c2nc(C3(c4ccc(Cl)cc4)CCCCC3)cs2)C1` (stereo not shown) [Compound 106], for which the IC50 in assay [1], in assay [2], in assay [3] and in assay [4] was > 1000 nM each time.
In the case of `Clc1ccc(C2(c3csc(N4CCC(N5CCCCC5)CC4)n3)CCCCC2)cc1` [Compound 107], the IC50 in assay [1] is > 1000 nM; in assay [2] it was < 1000 nM.
The corresponding values for `CN1CCC(N(C)c2nc(C3(c4ccc(Cl)cc4)CCCCC3)cs2)C1` (stereo not shown) [Compound 108] are < 100 nM and < 1000 nM.
On to `Clc1ccc(C2(c3csc(N4CCNCC4)n3)CCCC2)cc1` [Compound 109], for which the IC50 is < 100 nM in assay [1] and < 1000 nM in assay [2].
The matching figures for `Fc1ccccc1C1(c2csc(N3CCN(Cc4ccc(Cl)cc4)CC3)n2)CCCC1` [Compound 110]: > 1000 nM and > 1000 nM.
The corresponding values for `CCN(CC)CCCNc1nc(C2(c3ccccc3F)CCCC2)cs1` [Compound 114] are > 1000 nM and > 1000 nM.
The matching figures for `CN1CCCN(c2nc(C3(c4ccc(Cl)cc4)CCCCC3)cs2)CC1` [Compound 115]: < 1000 nM and < 1000 nM.
In the case of `CN(C)C1CCN(c2nc(C3(c4ccc(Cl)cc4)CCCCC3)cs2)C1` (stereo not shown) [Compound 117], the half-inhibitory concentration (IC50) in assay [1] and in assay [2] was > 1000 nM in each case.
With `CN(C)C1CCN(c2nc(C3(c4ccc(Cl)cc4)CCCC3)cs2)C1` (stereo not shown) [Compound 118], the IC50 was < 1000 nM in assay [1] and > 1000 nM in assay [2].
The corresponding values for `Clc1ccc(C2(c3csc(NC4CCN(Cc5ccccc5)C4)n3)CCCCC2)cc1` (stereo not shown) [Compound 119] are > 1000 nM and > 1000 nM.
For the compound `Clc1ccc(C2(c3csc(N4CCOCC4)n3)CCOCC2)cc1` [Compound 124, 4-{4-[4-(4-Chloro-phenyl)-tetrahydro-pyran-4-yl]-thiazol-2-yl}-morpholine], the IC50 in assay [1], in assay [2], in assay [3] and in assay [4] was > 1000 nM each time.
For the compound `Fc1ccccc1C1(c2csc(N3CCNCC3)n2)CCCCC1` [Compound 127, 1-{4-[1-(2-Fluorophenyl)-cyclohexyl]-thiazol-2-yl}-piperazine], the IC50 was < 100 nM in assay [1] and < 1000 nM in assay [2].
